This is an account of results in patent US20170066717A1, “NEW PHENYLAZETIDINECARBOXYLATE OR -CARBOXAMIDE COMPOUNDS” (INVENTIVA, priority 2014, published 2017).

For one data set, the target named is T1, NURR-1/RXRα (Homo sapiens, UniProt P19793).
T1 construct: expressed in transfected cells; host or cells: Cos-7 cells
The experiment in a line: Transactivation test, NURR-1-Gal4/RXRα, luciferase reporter in Cos-7 cells. The class given is cell-based. The note with it: for EC50: Cos-7 cells, NURR-1-Gal4/RXRα, luciferase reporter, read-out: hNurr1_RXRaFL EC50; for Emax: COS-7, induction level relative to reference XCT0135908 at 2×10^−5 M (=100%), read-out: hNurr1_RXRaFL Emax (%). In general terms: Reporter assays use an easily measured gene product as a stand-in for the process of interest.

The target in the next data set is T2, NURR-1/RXRγ (Homo sapiens, UniProt P48443).
T2 construct: expressed in transfected cells; host or cells: Cos-7 cells
T2 sequence (P48443 whole entry): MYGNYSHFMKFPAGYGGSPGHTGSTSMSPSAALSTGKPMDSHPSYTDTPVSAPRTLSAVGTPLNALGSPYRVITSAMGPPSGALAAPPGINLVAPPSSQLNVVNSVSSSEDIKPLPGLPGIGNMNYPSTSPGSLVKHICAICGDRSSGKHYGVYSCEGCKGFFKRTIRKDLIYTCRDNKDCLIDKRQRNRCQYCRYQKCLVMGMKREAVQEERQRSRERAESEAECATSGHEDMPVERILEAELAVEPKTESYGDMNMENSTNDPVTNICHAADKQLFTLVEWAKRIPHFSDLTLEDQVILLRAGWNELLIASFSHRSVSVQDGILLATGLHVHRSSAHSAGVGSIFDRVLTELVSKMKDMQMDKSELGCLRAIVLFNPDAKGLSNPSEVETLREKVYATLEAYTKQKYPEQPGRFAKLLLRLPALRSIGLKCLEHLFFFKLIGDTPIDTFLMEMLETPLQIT
T2 sequence (P43354 whole entry partner): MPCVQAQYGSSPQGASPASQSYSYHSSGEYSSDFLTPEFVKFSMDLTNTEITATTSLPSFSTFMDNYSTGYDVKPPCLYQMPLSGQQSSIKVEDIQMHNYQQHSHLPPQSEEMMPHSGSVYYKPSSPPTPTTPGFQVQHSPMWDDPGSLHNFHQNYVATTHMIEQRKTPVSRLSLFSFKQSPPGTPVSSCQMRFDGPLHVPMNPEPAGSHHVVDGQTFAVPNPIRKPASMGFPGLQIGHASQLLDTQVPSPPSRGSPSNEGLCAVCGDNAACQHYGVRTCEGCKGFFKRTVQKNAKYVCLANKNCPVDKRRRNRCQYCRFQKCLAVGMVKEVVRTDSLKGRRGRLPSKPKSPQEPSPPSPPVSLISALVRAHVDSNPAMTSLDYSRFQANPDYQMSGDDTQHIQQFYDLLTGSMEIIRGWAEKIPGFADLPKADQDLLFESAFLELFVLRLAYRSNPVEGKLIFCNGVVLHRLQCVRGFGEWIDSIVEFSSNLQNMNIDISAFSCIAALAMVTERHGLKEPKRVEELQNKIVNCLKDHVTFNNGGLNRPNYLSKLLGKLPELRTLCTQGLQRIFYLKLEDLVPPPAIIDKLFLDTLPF
T2 sequence (P04386 1-147 partner limits assumed): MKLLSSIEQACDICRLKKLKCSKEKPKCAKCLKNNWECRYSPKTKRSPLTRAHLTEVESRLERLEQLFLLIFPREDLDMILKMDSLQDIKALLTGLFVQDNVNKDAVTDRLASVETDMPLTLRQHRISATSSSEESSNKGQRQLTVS
Kind of data set: Transactivation test, NURR-1-Gal4/RXRγ, luciferase reporter in Cos-7 cells. The settings on record: for EC50: Cos-7 cells, NURR-1-Gal4/RXRγ, luciferase reporter, read-out: hNurr1_RXRgFL EC50; for Emax: COS-7, induction level relative to reference XCT0135908 at 2×10^−5 M (=100%), read-out: hNurr1_RXRgFL Emax (%). In kind it is cell-based.

Data set [1] can be described thus: Brain penetration in rats after intravenous administration. The class given is in vivo. The settings on record: rat; for Kp at 4 h: male, Wistar, intravenous, 4 mg/kg, ratio of Cmax brain to Cmax plasma after the 4 hours of infusion, rats, read-out: Kp (partition coefficient between the brain and the plasma); for Cmax at 4 h: male Wistar rats, 4 mg/kg iv infusion into the jugular vein for 4 hours, plasma at end of infusion. As to the method: (§1) Three series of in vivo tests were carried out with compounds representative of the invention, for the purpose of determining their pharmacokinetic plasma profile and their brain penetration.
2. Study of the Brain Penetration in Rats After Intravenous Administration
Male Wistar rats (250-300 g) originating from the establishment Janvier, Le Genest-St-Isle, France were used for this study (4 rats per study). The animals were fed with standard feed for rodents (Purina Mills, St. Louis, Mo.), placed in cages and subjected to light/darkness cycles of 12 h/12 h, the room temperature being maintained at 22±2° C. and the humidity level at 55±10%. The rats were not deprived food before the administration. Water was provided at will throughout the study.
The test compound was administered intravenously at 4 mg/kg by infusion into the jugular vein for 4 hours. For the intravenous administration, the animals were infused with 12 mL/kg of a solution of the test compound, prepared in 2% Cremophor EL/0.9% NaCl.
The animals were sacrificed under anesthesia after 4 hours of infusion. The blood and the brain were collected from each sacrificed animal 0.5 mL of blood collected in 1.5 mL tubes containing 20 μL of evaporated anticoagulant (solution of sodium heparinate at 1000 IU/mL) was centrifuged at 4500 g for 3 min in order to obtain approximately 200 μL of plasma. The plasma was divided up into 2 aliquots of 70 μL minimum, which were stored at −20° C. until they were treated by protein precipitation and then analysis by liquid chromatography coupled to tandem mass spectrometry (LC-MS/MS) in order to quantify the compound tested.
The brains were immersed in liquid nitrogen directly after they were removed, then stored at −20° C. for analysis. The brains were then ground in the presence of an aqueous/organic solvent mixture in order to obtain a homogenate. These homogenates were then centrifuged and the compound tested was extracted from the supernatant obtained, by liquid-liquid extraction, and then quantified by LC-MS/MS.
The brain penetration in the rats is represented by the Kp, which is the partition coefficient between the brain and the plasma. It is calculated by the ratio of the concentration measured in the brain (Cmax brain) and the plasma (Cmax plasma) after the 4 hours of infusion.

Data set [2] is described as follows: Plasma pharmacokinetics in mice after oral administration. The settings on record: mouse, male C57/Bl6 mice, oral 10 mg/kg; for AUC: sampling 15 min to 7 h, log-linear trapezoidal method, read-out: AUCplasma; for Cmax: suspension in 1% methylcellulose/0.1% Poloxamer 188. The class given is in vivo. As to the method: as §1
1. Study of the Plasma Phannacokinectis in Mice After Oral Administration
Male C57/B16 mice (25-30 g) originating from the establishment Janvier, Le Genest-St-Isle, France were used for this study (9 mice per dose). The animals were fed with standard feed for rodents (Purina Mills, St. Louis, Mo.), placed in cages and subjected to light/darkness cycles of 12 h/12 h, the temperature of the room being maintained at 22±2° C. and the humidity level at 55±10%.
The mice were not deprived food before the administration. Water was provided at will throughout the study. The test compound was admistered orally at 10 mg/kg. For the oral administration at 10 mg/kg, the animals were green, by gavage, 10 mL/kg of a suspension of the test compound, prepared in 1% methylcellulose, 400 cps/0.1% Poloxamer 188/water.
The animals were sacrificed under anesthesia at times 15 min, 30 min, 1 h, 3 h and 7 h after gavage. The blood was collected at each time, and from each animal sacrificed 0.5 mL of blood collected in 1.5 mL tubes containing 20 μL of evaporated anticoagulant (solution of sodium heparinate at 1000 IU/mL) was centrifuged at 4500 g for 3 min in order to obtain approximately 200 μL of plasma. The plasma was divided up into 2 aliquots of 70 μL minimum, which were stoted at −20° C. until they were treated by protein precipitation and then analysis by liquid chromatography coupled to tandem mass spectrometry (LC-MS/MS) in order to quantify the compound tested.
The pharmacokinetic plasma parameters in the mice after oral administration were determined using a non-compartmental approach with the Phoenix WinNonLin software. The area under the curve (AUC0-1) was determined bv the log-linear trapezoidal method. The tesults are brought together in the following table.

The subject of data set [3] is dopaminergic neurons of primary culture of rat embryo mesencephalon treated with MPP+. Kind of data set: Neuroprotection in primary culture of rat embryo mesencephalon treated with MPP+ (count of tyrosine hydroxylase expressing cells). The class given is cell-based. The note with it: recombinant human BDNF 10 ng/mL = 100%, 2 days with MPP+. As to the method:
Another in vitro test was carried out with the compounds according to the invention, for the purpose of verifying that the molecules indeed have the expected neuroprotective effect in vitro.
The compounds were tested in a model of primary culture of rat embryo mesencephalon treated with 1-methyl-4-phenylpyridinium (MPP+), which is the active metabolite of 1-methyl-4-phenyl-1,2,3,6-tetrahydropyridine (MPTP). MPP+ enters into dopananergic neurons via the dopamine transporter and causes the death of these dopaminergic neurons. The following protocol was used.
Gestating female rats (15 days of gestation) were euthanized and the rat embryos were removed. The mesencephalons were removed. The tissue was then dissociated mechanically and by using trypsin. The cells collected after centrifugation were distributed into 96-well plates and left to stand for 5 days. The culture conditions made it possible to obtain a cell layer composed of neurons (dopaminergic and others) and astrocytes. On the 6th day, the cells were optionally treated with MPP+ in the presence or absence of test compound. After 2 days of incubation, the cells were fixed and various cell labellings were carried out; staining of the nuclei with the Hoechst fluorescent label and immunolabelling of tyrosine hydroxylase. The cells expressing tyrosine hydroxylase were counted using an image analyzer coupled to an optical microscope.
Recombinant human BDNF trophic factor (10 ng/mL) was used as reference. The activities of the compounds are given as percentages of activity relative to the BDNF reference, the activity of which is arbitrarily defined as being equal to 100%.

The mark [4] stands for this setting: induction level relative to reference XCT0135908 at 2×10^−5 M (=100%).

T1 sequence (P19793 whole entry): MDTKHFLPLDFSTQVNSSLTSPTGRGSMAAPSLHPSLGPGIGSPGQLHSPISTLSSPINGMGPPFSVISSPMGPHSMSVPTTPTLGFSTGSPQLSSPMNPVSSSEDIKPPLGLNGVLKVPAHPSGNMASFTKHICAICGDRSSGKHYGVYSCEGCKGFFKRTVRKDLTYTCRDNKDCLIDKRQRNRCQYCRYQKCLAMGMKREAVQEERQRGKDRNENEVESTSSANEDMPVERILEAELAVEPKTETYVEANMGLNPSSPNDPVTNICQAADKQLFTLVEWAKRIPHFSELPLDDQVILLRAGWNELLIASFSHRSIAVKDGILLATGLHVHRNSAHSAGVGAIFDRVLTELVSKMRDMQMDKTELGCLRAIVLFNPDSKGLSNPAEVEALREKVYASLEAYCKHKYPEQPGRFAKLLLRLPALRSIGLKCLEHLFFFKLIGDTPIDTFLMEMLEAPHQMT
T1 sequence (P43354 whole entry partner): as the sequence (P43354 whole entry partner) above
T1 sequence (P04386 1-147 partner limits assumed): as the sequence (P04386 1-147 partner limits assumed) above

For `CC(C)CC1Oc2cc(C(F)(F)F)ccc2N(c2cccc(N3CC(C(=O)O)C3)c2)C1=O` (single isomer, unassigned; isomer 1) [Example 246-1, 1-[3-[2-isobutyl-3-oxo-7-(trifluoromethyl)-1,4-benzoxazin-4-yl]phenyl]azetidine-3-carboxylate acid, isomer 1], the melting point (commonly the temperature of the solid-liquid transition) was in the range of 68 to 74 °C. For the same molecule, the EC50 (commonly the midpoint of the concentration-response curve) at NURR-1/RXRα is 7 nM. Moreover, the “hNurr1_RXRaFL Emax (%)” value on NURR-1/RXRα (setting [4]) is on record as 97%. On NURR-1/RXRγ, the EC50 is 50 nM. Also, the “hNurr1_RXRgFL Emax (%)” value at NURR-1/RXRγ (setting [4]) is 95%. Moreover, in data set [1], the Kp (commonly the ratio of the level in a tissue or fluid to that in plasma or blood) at 4 h was found to be 0.13 and the concentration peaked (Cmax at 4 h) at 5800 ng/mL. In data set [2], the AUC came out at 48200 ng·h/mL and the concentration peaked (Cmax) at 15200 ng/mL.

Take `COCCNC(=O)C1CN(c2cccc(-n3cc(C)c4cc(C(F)(F)F)ccc43)c2)C1` [Example 173, N-(2-methoxyethyl)-1-[3-[3-methyl-5-(trifluoromethyly)indol-1-yl]phenyl]azetidine-3-carboxamide]: the figures for the Emax on NURR-1/RXRα and on NURR-1/RXRγ were 103% and 102%, respectively. Also, the EC50 was < 1 nM at NURR-1/RXRα and 5 nM on NURR-1/RXRγ. Moreover, the “percentage of activity relative to the BDNF reference” value in data set [3] (compound 1 μM) turned out to be 18%; in data set [3] (compound 10 μM), 72%.

As for `CCC1COc2cc(C(F)(F)F)cc(-c3cccc(N4CC(C(=O)O)C4)c3)c2N1` (stereo not drawn) [Example 186, 1-[3-[3-ethyl-7-(trifluoromethyl)-3.4-dihydro-2H-1,4-benzoxazin-5-yl]phenyl]azetidine-3-carboxylic acid], the melting point fell in the range of 61 to 64 °C. Moreover, on NURR-1/RXRα, the Emax (usually the size of the effect at its maximum, as opposed to the concentration needed) worked out at 102% and the EC50 is 3 nM. Further, at NURR-1/RXRγ, the Emax came to 94% and the EC50 is 11 nM. In data set [1], the Kp at 4 h turned out to be 0.15 and the highest level (Cmax at 4 h) was 932 ng/mL. In data set [2], the AUC was determined as 12100 ng·h/mL and the Cmax (in general, the maximum level reached in the sampled fluid or tissue) amounted to 6420 ng/mL.

Take `CC1(C)CNc2c(cc(C(C)(C)C)cc2-c2cccc(N3CC(C(=O)[O-])C3)c2)O1.[Na+]` [Example 187, sodium 1-[3-(7-tert-butyl-2,2-dimethyl-3,4-dihydro-1,4-benzoxazin-5-yl)phenyl]azetidine-3-carboxylate]: the melting point lay in the range of 205 to 213 °C. Further, on NURR-1/RXRα, the Emax came out at 91% and the EC50 came to 5 nM. Besides, at NURR-1/RXRγ, the Emax worked out at 80% and the EC50 is 23 nM. Further, in data set [1], the Kp at 4 h was determined as 1.27 and the concentration peaked (Cmax at 4 h) at 1360 ng/mL. In addition, in data set [2], the AUC came out at 5190 ng·h/mL and the Cmax is 2740 ng/mL.

`CCC1COc2cc(C(F)(F)F)ccc2N1c1cccc(N2CC(C(=O)O)C2)c1` (stereo not drawn) [Example 217, 1-[3-[3-ethyl-7-(trifluoromethyl)-2,3-dihydro-1,4-benzoxazin-4-yl]phenyl]azetidine-3-carboxylic acid] yielded a melting point of 61 to 74 °C. On NURR-1/RXRα, the Emax stood at 109% and the EC50 was 14 nM. For the same molecule, on NURR-1/RXRγ, the Emax was 125% and the EC50 worked out at 46 nM. In data set [2], the AUC turned out to be 30300 ng·h/mL and the Cmax came to 10200 ng/mL.

Take `CNC(=O)C1CN(c2cccc(N3CC(C)(C)Oc4cc(C(F)(F)F)ccc43)c2)C1` [Example 274, 1-[3-[2,2-dimethyl-7-(trifluoromethyl)3H-1,4-nemzoxazin-4-yl]phenyl]-N-methylazetidine-3-carboxamide]: at NURR-1/RXRα, the maximum response (Emax) turned out to be 110% and the EC50 came out at 6 nM. Moreover, at NURR-1/RXRγ, the Emax stood at 110% and the EC50 came to 8 nM. Also, in data set [1], the partition ratio (Kp) at 4 h worked out at 3.06 and the peak level (Cmax at 4 h) was 337 ng/mL. Further, in data set [2], the AUC came to 576 ng·h/mL and the peak level (Cmax) was 252 ng/mL.
